A compilation of properties of binary mixtures (doi:10.1016/j.molliq.2016.11.066)

Assay: xn = mol fraction of the nth substance listed
Conditions: 101 kPa

CCCC[n+]1ccn(C)c1.F[P-](F)(F)(F)(F)F + COCCO
speed of sound [m/s]
Conditions | x1 = 0.0966 | x1 = 0.1943 | x1 = 0.2887 | x1 = 0.3979 | x1 = 0.4792 | x1 = 0.5943 | x1 = 0.6753 | x1 = 0.8101 | x1 = 0.8849 | x1 = 1
298.15 K | 1365.5 | 1384.8 | – | 1407.6 | 1414.1 | – | 1427.3 | 1435.2 | – | 1443.8
303.15 K | 1349.4 | 1369.8 | 1383.3 | – | 1401.4 | 1409.8 | 1414.9 | 1422.8 | – | 1431.7
308.15 K | 1333.3 | 1354.5 | 1369 | – | 1388.8 | 1397.5 | – | 1411 | 1414.9 | 1419.8
313.15 K | 1317.6 | 1339.6 | 1355.1 | 1368.2 | 1376 | 1385.6 | – | 1399.3 | 1403.1 | 1408.2
318.15 K | 1301.5 | 1324.7 | 1341.4 | – | 1363.7 | 1373.6 | – | 1388 | 1391.8 | –
323.15 K | 1285.5 | 1310.1 | 1327.8 | 1343 | 1352.2 | 1362.1 | 1368.3 | 1377.2 | – | 1385.6

COCCO + CCCC[n+]1ccn(C)c1.F[P-](F)(F)(F)(F)F
x2 = 0
Conditions | speed of sound [m/s]
298.15 K | 1342.1
303.15 K | 1324.7
308.15 K | 1307.4
313.15 K | 1290.1
318.15 K | 1272.7
323.15 K | 1255.4
